Read-outs that look alike come from different tables or passages of the source.
How the values were obtained:
[1] = according to the authors of Collection Czechoslov. Chem. Common 37 868-886 (1972); cited from earlier work
rat duodenum = assay: Relaxant activity in vitro on isolated organ: decontraction (rat duodenum); settings: Tyrode solution, 37° C.
Description: (§1) The tests were carried out on acid addition salts of the amines of the general formula.
(§2) For tests on the isolated organ: An organ fragment of rat duodenum or guinea pig ileum is kept alive in 50 ml of oxygenated and thermostatically controlled (37° C.) Tyrode solution. The activity of the compounds is tested on the spontaneous movements of the organ and the contractions produced by the addition of solution of barium chloride or acetyl choline to the bath. The movements were recorded on a DMP 4A Roucaire physiograph.

guinea pig ileum = assay: Relaxant activity in vitro on isolated organ: anti-acetylcholine (guinea pig ileum); settings: Tyrode solution, 37° C., acetyl choline
Description: as §1, §2

in vivo = settings: mouse, male Swiss C.D. mice, acid addition salts
Description: as §1
The acute toxicity was determined in male Swiss C.D. mice weighing an average of 20 grammes, after oral administration (P.O) and intravenous administration (I.V.).

[2] = system: smooth intestinal muscle fibre (terminal part of the duodenum); assay: In vivo relaxant activity on smooth intestinal muscle in the anaesthetised (chloralosed) dog, balloon in terminal duodenum; settings: 2 mg/kg intravenously, compared with atropine
Description: as §1
For the in vivo tests: a balloon is introduced into the chloralosed animal at the level of the terminal part of the duodenum and the intestinal movements are recorded on a Beckman polygraph with the acid of Statham PM 97 gauge.

[3] = intravenous, read-out: Toxicity in mice LD50 I.V
[4] = oral, read-out: Toxicity in mice LD50 P.O.

Structure (SMILES)	spasmolytic action [1]	Minimum active dose concentration, Decontraction (rat duodenum) (rat duodenum)	Minimum active dose concentration, Anti-Acetyl-Cholire (guinea pig ileum) (guinea pig ileum) [µg/mL]	LD50 (in vivo; [3]) [mg/kg]	LD50 (in vivo; [4]) [mg/kg]	effect as regards the reduction in muscle tone and intestinal peristalsis [2]
CN(C)CCON=C1CCCOc2cc(Cl)ccc21	weak spasmolytic action	–	–	–	–	–
CN1[C@@H]2CC[C@H]1C[C@@H](OC(=O)C(CO)c1ccccc1)C2 (stereo partly shown) [ATROPINE, reference compound]	–	inactive	0.006	–	–	–
CN(C)CCON=C1CCCOc2ccc(Cl)cc21 [Example 1, 7-chloro-3,4-dihydro-1-benzoxepin-O-(dimethylaminoethyl)-5-one oxime]	–	0.06 µg/mL	5.5	32	150	comparable with or even superior to that of atropine
CCN(CC)CCO/N=C1/CCCOc2ccc(Cl)cc21 [Example 2, 7-chloro-3,4-dihydro-1-benzoxepin-O-(diethylaminoethyl)-5-one oxime: isomer with the cis configuration in relation to the benzene nucleus]	–	0.1 µg/mL	1	37	420	comparable with or even superior to that of atropine
Clc1ccc2c(c1)C(=NOCCN1CCOCC1)CCCO2 [Example 6, 7-chloro-3,4-dihydro-1-benzoxepin-O-(morpholinoethyl)-5-one oxime]	–	0.15 µg/mL	5.5	120	> 1000	–
Clc1ccc2c(c1)C(=NOCCN1CCCC1)CCCO2 [Example 7, 7-chloro-3,4-dihydro-1-benzoxepin-O-(1-pyrrolidinyl-ethyl)-5-one oxime]	–	1.5 µg/mL	1.3	35	450	comparable with or even superior to that of atropine
CN(C)CCCON=C1CCCOc2ccc(Cl)cc21 [Example 8, 7-chloro-3,4-dihydro-1-benzoxepin-O-(dimethylaminopropyl)-5-one oxime]	–	0.12 µg/mL	3.5	60	500	comparable with or even superior to that of atropine
COc1ccc2c(c1)C(=NOCCN(C)C)CCCO2 [Example 9, 7-methoxy-3,4-dihydro-1-benzoxepin-O-(dimethylaminoethyl)-5-one oxime]	–	0.12 µg/mL	1.5	35	500	–
CCN(CC)CCON=C1CCCOc2ccc(OC)cc21 [Example 10, 7-methoxy-3,4-dihydro-1-benzoxepin-O-(diethylaminoethyl)-5-one oxime]	–	0.5 µg/mL	0.5	45	450	–
COc1ccc2c(c1)C(=NOCCCN(C)C)CCCO2 [Example 11]	–	0.3 µg/mL	2.0	–	> 1000	–
CCN(CC)CCON=C1CCCOc2ccc(Br)cc21 [Example 12, 7-bromo-3,4-dihydro-1-benzoxepin-O-(diethylaminoethyl)-5-one oxime]	–	0.1 µg/mL	1	40	250	comparable with or even superior to that of atropine

Source: patent US4179516A, “Ethers of 3,4-dihydro-1-benzoxepin-5-one oxime to treat intestinal disorders” (Albert Rolland, S.A., priority 1973, dated 1979)
